Measurements: patent US6339045B1, “N-(unsubstituted or substituted)-4-substituted-6-(unsubstituted or substituted)phenoxy-2-pyridinecarboxamides or thiocarboxamides, processes for producing the same, and herbicides” (Kureha Kagaku Kogyo Kabushiki Kaisha, priority 1995, dated 2002)

Legend:
Test in all cases: Herbicidal effect by foliage and soil treatment
Format in all cases: in vivo
Conditions in all cases: 10 g ai/10a, evaluated after 14 days
[1] = test system: kediock (Sinapis arvensis)
Excerpt: (§1) Experiment for Determination of Herbicidal Effect by Foliate and Soil Treatment Seeds of redroot pigweed (Amaranthus retroflexus), common blackjack (Bidens pilosa), kediock (Sinapis arvensis), common chickweed (Stellaria media), sicklepod (Cassia obtusifolia), black nightshade (Solanum nigrum), velvetleaf (Abutilon theophrasti), field bindweed (Convolvulus arvensis), wild chamomile (Matricaria chamomilla), cleavers (Galium aparine) and […] (Veronica hederaefolia), were uniformly sowed over a horticultural granular soil (produced by KUREHA CHEMICAL INDUSTRY, CO., LTD.; the same soil was used hereinafter) filled in a planter. The planter was placed in a greenhouse (maintained at 19 to 25° C.) to sprout these plants. Two seedlings of each sprouted plant were transplanted to a 10 cm-diameter pot filled with the horticultural granular soil and cultivated in the greenhouse (maintained at 19 to 25° C.) until reaching a cotyledonal to bifoliate period suited to the foliage and soil treatment. […] Next, additional amounts of Tween 20 and water were added to the obtained solution or suspension to produce a test solution. The plants prepared in the above (1) were placed within a frame having a predetermined inside area, and uniformly sprayed with the test solution using a sprayer such that the amount of each compound applied was controlled to a predetermined level. The plants sprayed with the test solution were placed again in the greenhouse (maintained at 19 to 25° C.) and cultivated therein. After 14 days, the degree of growth of each plant cultivated in the treated region was compared with that of plant cultivated in non-treated region, and evaluated according to the following ratings. The herbicidal activity of each test compound was represented by these ratings

[2] = test system: cleavers (Galium aparine)
Excerpt: as §1

[3] = test system: common chickweed (Stellaria media)
Excerpt: as §1

[4] = test system: common blackjack (Bidens pilosa)
Excerpt: as §1

[5] = test system: black nightshade (Solanum nigrum)
Excerpt: as §1

[6] = test system: field bindweed (Convolvulus arvensis)
Excerpt: as §1

[7] = test system: wild chamomile (Matricaria chamomilla)
Excerpt: as §1

[8] = test system: redroot pigweed (Amaranthus retroflexus)
Excerpt: as §1

[9] = test system: velvetleaf (Abutilon theophrasti)
Excerpt: as §1

[10] = test system: sicklepod (Cassia obtusifolia)
Excerpt: as §1

[11] = test system: ivyleafspeedwell (Veronica hederaefolia)
Excerpt: as §1

Structure (SMILES) | herbicidal activity rating, SA (Sinapis arvensis) [1] | herbicidal activity rating, GA (Galium aparine) [2] | herbicidal activity rating, SM (Stellaria media) [3] | herbicidal activity rating, BP (Bidens pilosa) [4] | herbicidal activity rating, SN (Solanum nigrum) [5] | herbicidal activity rating, CA (Convolvulus arvensis) [6] | herbicidal activity rating, MC (Matricaria chamomilla) [7] | herbicidal activity rating, AR (Amaranthus retroflexus) [8] | herbicidal activity rating, AT (Abutilon theophrasti) [9] | herbicidal activity rating, CO (Cassia obtusifolia) [10] | herbicidal activity rating, VH (Veronica hederaefolia) [11]
COc1cc(Oc2cccc(C(F)(F)F)c2)nc(C(=O)NCCS(C)(=O)=O)c1 [Compound I-63] | 5 (percentage of weeds killed was not less than 80%) | 5 (percentage of weeds killed was not less than 80%) | 5 (percentage of weeds killed was not less than 80%) | 4 (percentage of weeds killed was not less than 60% and less than 80%) | 5 (percentage of weeds killed was not less than 80%) | 5 (percentage of weeds killed was not less than 80%) | 4 (percentage of weeds killed was not less than 60% and less than 80%) | 5 (percentage of weeds killed was not less than 80%) | 4 (percentage of weeds killed was not less than 60% and less than 80%) | 5 (percentage of weeds killed was not less than 80%) | 5 (percentage of weeds killed was not less than 80%)
COc1cc(Oc2cccc(C(F)(F)F)c2)nc(C(=O)N2CC2C)c1 (centres unmarked) [Compound I-300, 4-methoxy-2-{N-(2-methylaziridinyl)carbonyl}-6-{3-(trifluoromethyl)phenoxy}-2-pyridine] | 5 (percentage of weeds killed was not less than 80%) | 5 (percentage of weeds killed was not less than 80%) | 5 (percentage of weeds killed was not less than 80%) | 5 (percentage of weeds killed was not less than 80%) | 5 (percentage of weeds killed was not less than 80%) | 4 (percentage of weeds killed was not less than 60% and less than 80%) | 2 (percentage of weeds killed was not less than 20% and less than 40%) | 5 (percentage of weeds killed was not less than 80%) | 4 (percentage of weeds killed was not less than 60% and less than 80%) | 5 (percentage of weeds killed was not less than 80%) | 5 (percentage of weeds killed was not less than 80%)
CCC(=O)CNC(=O)c1cc(OC)cc(Oc2cccc(C(F)(F)F)c2)n1 [Compound I-86, N-(2-oxobutyl)-4-methoxy-6-{3-(trifluoromethyl)phenoxy}-2-pyridine carboxamide] | 5 (percentage of weeds killed was not less than 80%) | 5 (percentage of weeds killed was not less than 80%) | 5 (percentage of weeds killed was not less than 80%) | 4 (percentage of weeds killed was not less than 60% and less than 80%) | 5 (percentage of weeds killed was not less than 80%) | 3 (percentage of weeds killed was not less than 40% and less than 60%) | 4 (percentage of weeds killed was not less than 60% and less than 80%) | 5 (percentage of weeds killed was not less than 80%) | 5 (percentage of weeds killed was not less than 80%) | 4 (percentage of weeds killed was not less than 60% and less than 80%) | 5 (percentage of weeds killed was not less than 80%)
COc1cc(Oc2cccc(C(F)(F)F)c2)nc(C(=O)NC2CCC2)c1 [Compound I-49] | 5 (percentage of weeds killed was not less than 80%) | 5 (percentage of weeds killed was not less than 80%) | 5 (percentage of weeds killed was not less than 80%) | 5 (percentage of weeds killed was not less than 80%) | 5 (percentage of weeds killed was not less than 80%) | 5 (percentage of weeds killed was not less than 80%) | 5 (percentage of weeds killed was not less than 80%) | 5 (percentage of weeds killed was not less than 80%) | 5 (percentage of weeds killed was not less than 80%) | 5 (percentage of weeds killed was not less than 80%) | 5 (percentage of weeds killed was not less than 80%)
COc1cc(Oc2cccc(C(F)(F)F)c2)nc(C(=O)NCc2ccccc2)c1 [Compound I-45, N-benzyl-4-methoxy-6-{3-(trifluoromethyl)phenoxy}-2-pyridine carboxamide] | 5 (percentage of weeds killed was not less than 80%) | 5 (percentage of weeds killed was not less than 80%) | 5 (percentage of weeds killed was not less than 80%) | 5 (percentage of weeds killed was not less than 80%) | 5 (percentage of weeds killed was not less than 80%) | 5 (percentage of weeds killed was not less than 80%) | 2 (percentage of weeds killed was not less than 20% and less than 40%) | 5 (percentage of weeds killed was not less than 80%) | 4 (percentage of weeds killed was not less than 60% and less than 80%) | 5 (percentage of weeds killed was not less than 80%) | 5 (percentage of weeds killed was not less than 80%)
COc1cc(Oc2cccc(OC(F)(F)F)c2)nc(C(=O)Nc2ccccc2)c1 [Compound I-20, N-phenyl-4-methoxy-6-{3-(trifluoromethoxy)phenoxy}-2-pyridine carboxamide] | 5 (percentage of weeds killed was not less than 80%) | 5 (percentage of weeds killed was not less than 80%) | 5 (percentage of weeds killed was not less than 80%) | 5 (percentage of weeds killed was not less than 80%) | 5 (percentage of weeds killed was not less than 80%) | 4 (percentage of weeds killed was not less than 60% and less than 80%) | 4 (percentage of weeds killed was not less than 60% and less than 80%) | 5 (percentage of weeds killed was not less than 80%) | 4 (percentage of weeds killed was not less than 60% and less than 80%) | 5 (percentage of weeds killed was not less than 80%) | 5 (percentage of weeds killed was not less than 80%)
CNN(C)C(=O)c1cc(OC)cc(Oc2cccc(C(F)(F)F)c2)n1 [Compound I-202, N-methyl-N-methylamino-4-methoxy-6-{3-(trifluoromethyl)phenoxy}-2-pyridine carboxamide] | 5 (percentage of weeds killed was not less than 80%) | 5 (percentage of weeds killed was not less than 80%) | 5 (percentage of weeds killed was not less than 80%) | 4 (percentage of weeds killed was not less than 60% and less than 80%) | 5 (percentage of weeds killed was not less than 80%) | 4 (percentage of weeds killed was not less than 60% and less than 80%) | 3 (percentage of weeds killed was not less than 40% and less than 60%) | 5 (percentage of weeds killed was not less than 80%) | 4 (percentage of weeds killed was not less than 60% and less than 80%) | 5 (percentage of weeds killed was not less than 80%) | 5 (percentage of weeds killed was not less than 80%)
